Patent US20230117831A1, “MULTI-FUNCTIONAL CHIMERIC MOLECULES” (THE BROAD INSTITUTE, INC., priority 2020, published 2023)
Like-named read-outs stand apart in the source and are kept apart here. Blank lines part the entries; values can stand above or below the compound they belong to.

Columns and labels:
[1] = molecular target: PKCalpha (Homo sapiens, UniProt P17252); details: PKC alpha; read-out: Kd; cited from earlier work
[2] = molecular target: PKC delta (Homo sapiens, UniProt Q05655); details: PKC delta, cited from earlier work
[3] = molecular target: PKC gamma (Homo sapiens, UniProt P05129); details: PKC gamma, cited from earlier work
[4] = molecular target: PKC beta (Homo sapiens, UniProt P05771); details: PKC beta, cited from earlier work
Sequence of PKC beta (P05771 whole entry): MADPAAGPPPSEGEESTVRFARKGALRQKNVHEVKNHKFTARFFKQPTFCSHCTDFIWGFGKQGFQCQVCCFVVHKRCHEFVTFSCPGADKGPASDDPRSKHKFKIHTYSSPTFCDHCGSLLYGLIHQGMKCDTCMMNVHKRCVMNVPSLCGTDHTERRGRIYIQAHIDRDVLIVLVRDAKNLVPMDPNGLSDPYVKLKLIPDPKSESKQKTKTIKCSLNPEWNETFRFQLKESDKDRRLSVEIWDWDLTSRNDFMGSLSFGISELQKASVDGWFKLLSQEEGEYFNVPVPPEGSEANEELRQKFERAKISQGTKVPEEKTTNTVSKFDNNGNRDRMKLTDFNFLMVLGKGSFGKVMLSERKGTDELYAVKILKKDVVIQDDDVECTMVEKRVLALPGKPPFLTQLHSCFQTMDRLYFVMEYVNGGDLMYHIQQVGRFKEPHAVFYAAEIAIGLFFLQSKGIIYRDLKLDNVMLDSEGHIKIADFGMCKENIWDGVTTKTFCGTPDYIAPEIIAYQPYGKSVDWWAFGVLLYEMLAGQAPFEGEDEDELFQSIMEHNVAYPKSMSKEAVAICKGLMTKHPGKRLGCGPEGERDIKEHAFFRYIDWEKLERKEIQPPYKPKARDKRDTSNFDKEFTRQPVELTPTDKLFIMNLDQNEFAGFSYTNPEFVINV

[5] = tested on: breast carcinoma cell lines MCF-7 and MDA-MB-231; details: cited from earlier work
[6] = molecular target: T1, PKC epsilon (Homo sapiens, UniProt Q02156); details: PKC epsilon, cited from earlier work
T1 sequence (Q02156 1-737): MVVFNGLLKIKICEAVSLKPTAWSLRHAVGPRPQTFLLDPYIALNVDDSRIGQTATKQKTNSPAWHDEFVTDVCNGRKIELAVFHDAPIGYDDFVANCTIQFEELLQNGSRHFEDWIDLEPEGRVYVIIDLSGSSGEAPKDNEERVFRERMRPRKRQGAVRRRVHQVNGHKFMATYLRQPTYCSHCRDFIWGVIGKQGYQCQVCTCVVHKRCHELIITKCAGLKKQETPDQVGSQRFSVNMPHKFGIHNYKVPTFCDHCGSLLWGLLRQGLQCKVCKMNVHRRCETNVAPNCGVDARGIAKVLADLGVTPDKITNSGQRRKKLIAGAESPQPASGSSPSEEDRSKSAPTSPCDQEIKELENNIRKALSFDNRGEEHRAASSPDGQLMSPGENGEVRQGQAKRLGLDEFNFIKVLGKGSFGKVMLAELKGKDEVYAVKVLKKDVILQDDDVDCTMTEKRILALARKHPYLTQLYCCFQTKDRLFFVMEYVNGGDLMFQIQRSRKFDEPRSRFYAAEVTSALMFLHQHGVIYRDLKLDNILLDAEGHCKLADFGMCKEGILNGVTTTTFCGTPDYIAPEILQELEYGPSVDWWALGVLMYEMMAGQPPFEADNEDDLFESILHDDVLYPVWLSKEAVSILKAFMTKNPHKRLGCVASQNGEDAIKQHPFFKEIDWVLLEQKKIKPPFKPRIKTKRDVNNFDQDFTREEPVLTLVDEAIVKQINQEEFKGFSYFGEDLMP

[7] = molecular target: PKC eta (Homo sapiens, UniProt P24723); details: cited from earlier work
Sequence of PKC eta (P24723 whole entry): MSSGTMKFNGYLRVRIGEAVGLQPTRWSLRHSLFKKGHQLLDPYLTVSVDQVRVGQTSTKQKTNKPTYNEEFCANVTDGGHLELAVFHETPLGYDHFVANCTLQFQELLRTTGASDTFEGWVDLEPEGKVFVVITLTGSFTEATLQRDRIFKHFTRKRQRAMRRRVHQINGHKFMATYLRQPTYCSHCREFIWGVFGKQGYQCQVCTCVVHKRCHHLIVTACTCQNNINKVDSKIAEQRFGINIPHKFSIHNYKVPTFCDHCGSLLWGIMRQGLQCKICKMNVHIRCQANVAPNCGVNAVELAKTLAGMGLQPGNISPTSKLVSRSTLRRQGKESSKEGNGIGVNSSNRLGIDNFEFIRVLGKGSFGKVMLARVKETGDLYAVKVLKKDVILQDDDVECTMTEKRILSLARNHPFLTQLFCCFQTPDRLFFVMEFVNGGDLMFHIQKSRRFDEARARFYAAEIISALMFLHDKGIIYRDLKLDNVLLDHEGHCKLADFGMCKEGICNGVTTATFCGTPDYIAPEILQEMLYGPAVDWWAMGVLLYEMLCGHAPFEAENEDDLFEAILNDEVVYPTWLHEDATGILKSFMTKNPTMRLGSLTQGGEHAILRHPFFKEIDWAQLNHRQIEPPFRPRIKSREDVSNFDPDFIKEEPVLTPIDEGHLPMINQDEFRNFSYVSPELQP

[8] = molecular target: PKCα (Homo sapiens, UniProt P17252); assay: ADP-Glo kinase activation, CREBtide peptide; assay type: biochemical; set-up: GST; purchased SignalChem P61-18G
Experimental: ADP-Glo assay was performed with PHICS (PKC) in a similar manner with some modifications as follows. In a 96 well plate (white, flat bottom), similar concentration series of PHICS (2.1, 2.2, 2.3, 2.4 and 2.5) were prepared using same kinase assay buffer and incubated with 2 ng of PKC, 0.2 μg/μL CREBtide peptide and 50 μM ATP for 1 hr at room temperature before incubation with ADP-Glo assay reagents.

[9] = molecular target: BRAF (Homo sapiens, UniProt P15056); details: cited from earlier work
[10] = molecular target: BRD4 (AMPK) (Homo sapiens, UniProt O60885+Q13131+Q9Y478); assay: in vitro kinase assay, BRD4 phosphorylation by AMPK with/without AMP; assay type: biochemical; details: 1 uM compound, with and without 100 uM AMP
Experimental: In vitro kinase assay was conducted for BRD4 phosphorylation by AMPK (1 uM compound). Compounds MS231, and VS806 tested are depicted below.
Compounds MS231, VS806 and VS804 were tested with and without 100 uM AMP. ADP glo for BRD4 phosphorylation by AMPK with and without AMP was conducted. The addition of AMP enhanced the phosphorylation signal, with ADP production measured at 2 hours, 20 nM AMPK.

[11] = molecular target: FYN [isoform a] (Homo sapiens, UniProt P06241); details: cited from earlier work
Sequence of FYN [isoform a] (P06241 whole entry, canonical isoform): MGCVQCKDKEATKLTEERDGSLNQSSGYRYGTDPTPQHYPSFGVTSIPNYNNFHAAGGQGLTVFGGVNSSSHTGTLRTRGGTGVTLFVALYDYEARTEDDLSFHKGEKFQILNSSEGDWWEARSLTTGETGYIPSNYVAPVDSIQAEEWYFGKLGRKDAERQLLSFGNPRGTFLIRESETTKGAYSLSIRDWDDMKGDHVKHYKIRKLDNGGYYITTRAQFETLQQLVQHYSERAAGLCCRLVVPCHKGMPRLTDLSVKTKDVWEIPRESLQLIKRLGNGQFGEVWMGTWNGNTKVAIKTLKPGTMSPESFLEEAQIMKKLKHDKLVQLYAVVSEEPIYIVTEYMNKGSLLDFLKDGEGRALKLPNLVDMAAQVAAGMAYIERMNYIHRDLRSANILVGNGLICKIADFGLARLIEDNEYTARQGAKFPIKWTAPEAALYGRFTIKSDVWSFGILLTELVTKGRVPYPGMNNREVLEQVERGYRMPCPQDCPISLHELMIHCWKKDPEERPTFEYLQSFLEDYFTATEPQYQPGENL

[12] = molecular target: T2, DDR2 (Homo sapiens, UniProt Q16832); details: cited from earlier work
T2 sequence (Q16832 22-855): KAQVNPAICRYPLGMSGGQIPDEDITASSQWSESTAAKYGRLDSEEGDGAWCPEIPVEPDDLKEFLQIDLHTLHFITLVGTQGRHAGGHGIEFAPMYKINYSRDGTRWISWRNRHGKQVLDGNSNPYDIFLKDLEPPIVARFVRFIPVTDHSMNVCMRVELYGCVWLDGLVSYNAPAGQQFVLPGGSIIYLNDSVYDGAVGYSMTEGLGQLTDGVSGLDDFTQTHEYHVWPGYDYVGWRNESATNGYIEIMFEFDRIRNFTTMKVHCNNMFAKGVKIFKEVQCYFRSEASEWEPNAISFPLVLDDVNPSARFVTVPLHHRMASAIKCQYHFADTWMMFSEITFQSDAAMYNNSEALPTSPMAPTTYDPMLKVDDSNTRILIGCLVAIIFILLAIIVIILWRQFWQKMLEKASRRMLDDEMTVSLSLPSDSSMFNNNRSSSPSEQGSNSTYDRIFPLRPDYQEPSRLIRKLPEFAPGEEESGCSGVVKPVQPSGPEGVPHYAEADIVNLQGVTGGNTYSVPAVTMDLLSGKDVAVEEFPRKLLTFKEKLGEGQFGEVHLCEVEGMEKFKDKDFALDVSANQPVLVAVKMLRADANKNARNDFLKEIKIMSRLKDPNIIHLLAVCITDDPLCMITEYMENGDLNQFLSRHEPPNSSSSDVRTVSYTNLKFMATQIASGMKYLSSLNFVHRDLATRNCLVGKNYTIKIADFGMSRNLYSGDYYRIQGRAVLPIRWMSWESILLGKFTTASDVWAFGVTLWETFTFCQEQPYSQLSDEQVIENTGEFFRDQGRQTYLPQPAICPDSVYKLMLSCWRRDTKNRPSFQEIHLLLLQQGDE

[13] = molecular target: FGFR1 (Homo sapiens, UniProt P11362); details: cited from earlier work
Sequence of FGFR1 (P11362 22-822, species assumed): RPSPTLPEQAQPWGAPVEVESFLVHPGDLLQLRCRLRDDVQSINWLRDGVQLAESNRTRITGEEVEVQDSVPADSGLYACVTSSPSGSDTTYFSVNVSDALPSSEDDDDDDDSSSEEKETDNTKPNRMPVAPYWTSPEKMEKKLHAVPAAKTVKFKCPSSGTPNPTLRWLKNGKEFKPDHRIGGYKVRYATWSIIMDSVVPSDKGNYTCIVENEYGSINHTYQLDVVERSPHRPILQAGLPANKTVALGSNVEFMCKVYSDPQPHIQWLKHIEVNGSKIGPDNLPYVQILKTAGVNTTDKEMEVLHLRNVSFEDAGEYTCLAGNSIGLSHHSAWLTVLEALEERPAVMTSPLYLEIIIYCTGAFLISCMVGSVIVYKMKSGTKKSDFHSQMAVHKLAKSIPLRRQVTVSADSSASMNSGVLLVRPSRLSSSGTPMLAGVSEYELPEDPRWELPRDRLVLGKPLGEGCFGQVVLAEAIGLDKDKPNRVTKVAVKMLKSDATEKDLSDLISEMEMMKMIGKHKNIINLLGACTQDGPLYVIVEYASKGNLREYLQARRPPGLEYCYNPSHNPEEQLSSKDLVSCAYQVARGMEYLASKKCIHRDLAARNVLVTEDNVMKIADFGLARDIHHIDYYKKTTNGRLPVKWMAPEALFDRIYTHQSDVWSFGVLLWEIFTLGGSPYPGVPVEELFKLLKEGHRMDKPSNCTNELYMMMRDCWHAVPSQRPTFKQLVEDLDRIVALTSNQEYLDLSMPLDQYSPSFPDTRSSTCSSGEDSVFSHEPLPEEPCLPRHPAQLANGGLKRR

[14] = molecular target: BTK (Homo sapiens, UniProt Q06187); details: cited from earlier work
[15] = molecular target: RET (Homo sapiens, UniProt P07949); details: cited from earlier work
[16] = molecular target: LYN [isoform a] (Homo sapiens, UniProt P07948); details: cited from earlier work
Sequence of LYN [isoform a] (P07948 whole entry, canonical isoform): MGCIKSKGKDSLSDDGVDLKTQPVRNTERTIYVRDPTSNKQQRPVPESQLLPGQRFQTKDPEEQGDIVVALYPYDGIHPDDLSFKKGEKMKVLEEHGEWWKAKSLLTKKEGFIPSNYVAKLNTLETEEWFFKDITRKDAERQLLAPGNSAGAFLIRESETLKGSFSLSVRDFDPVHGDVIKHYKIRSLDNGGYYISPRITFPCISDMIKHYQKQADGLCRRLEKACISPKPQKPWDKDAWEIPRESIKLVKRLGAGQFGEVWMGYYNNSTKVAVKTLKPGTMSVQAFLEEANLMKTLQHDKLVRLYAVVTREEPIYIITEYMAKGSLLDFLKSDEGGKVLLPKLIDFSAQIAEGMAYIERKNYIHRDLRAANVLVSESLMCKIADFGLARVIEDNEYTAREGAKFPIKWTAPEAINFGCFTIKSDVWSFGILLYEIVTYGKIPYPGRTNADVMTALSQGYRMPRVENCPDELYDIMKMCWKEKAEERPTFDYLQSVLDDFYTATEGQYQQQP

[17] = molecular target: TIE2 (Homo sapiens, UniProt Q02763); details: cited from earlier work
Sequence of TIE2 (Q02763 23-1124, species assumed): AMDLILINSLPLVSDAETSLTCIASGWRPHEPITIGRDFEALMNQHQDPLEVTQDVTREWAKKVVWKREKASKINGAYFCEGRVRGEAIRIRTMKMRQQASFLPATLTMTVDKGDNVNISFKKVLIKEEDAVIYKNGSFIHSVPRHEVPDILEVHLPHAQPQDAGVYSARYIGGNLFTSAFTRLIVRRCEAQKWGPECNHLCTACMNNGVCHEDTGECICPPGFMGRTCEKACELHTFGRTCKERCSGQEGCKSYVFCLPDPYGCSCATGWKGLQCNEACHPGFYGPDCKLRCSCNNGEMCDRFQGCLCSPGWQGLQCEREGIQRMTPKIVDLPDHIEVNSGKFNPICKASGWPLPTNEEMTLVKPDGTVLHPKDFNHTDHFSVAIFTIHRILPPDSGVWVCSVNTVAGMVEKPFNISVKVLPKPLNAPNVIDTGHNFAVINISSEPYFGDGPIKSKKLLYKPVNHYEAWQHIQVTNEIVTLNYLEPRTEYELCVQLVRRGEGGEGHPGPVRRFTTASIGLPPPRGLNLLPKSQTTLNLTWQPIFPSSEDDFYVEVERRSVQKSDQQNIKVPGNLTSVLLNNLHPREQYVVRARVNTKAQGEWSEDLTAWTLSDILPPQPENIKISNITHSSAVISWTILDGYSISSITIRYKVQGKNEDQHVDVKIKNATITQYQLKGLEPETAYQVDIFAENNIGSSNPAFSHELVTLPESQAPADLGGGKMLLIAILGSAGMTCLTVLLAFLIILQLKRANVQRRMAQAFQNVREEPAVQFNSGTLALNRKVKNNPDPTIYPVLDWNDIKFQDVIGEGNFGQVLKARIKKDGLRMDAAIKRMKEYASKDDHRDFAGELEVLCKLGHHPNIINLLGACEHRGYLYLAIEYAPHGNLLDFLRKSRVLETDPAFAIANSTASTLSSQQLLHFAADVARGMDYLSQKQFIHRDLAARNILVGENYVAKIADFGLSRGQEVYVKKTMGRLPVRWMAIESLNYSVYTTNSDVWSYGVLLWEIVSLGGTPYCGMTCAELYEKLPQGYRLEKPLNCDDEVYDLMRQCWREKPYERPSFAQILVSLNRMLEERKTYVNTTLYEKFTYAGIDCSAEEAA

[18] = molecular target: BRD4 (Abl) (Homo sapiens, UniProt O60885+P00519); assay: tyrosine phosphorylation Abl-BRD4 (Millipore); assay type: biochemical; details: relative to control DMSO
Experimental: Multi-functional molecules comprising a BRD4 localizing moiety and an Abl activator moiety were assayed for tyrosine phosphorylation activity (Millipore)(FIG. 91). […] DPH derived PHICS phosphorylation levels, and thus, Abl engagement, varied by attachment of the DPH derivative to the multifunctional chimeric molecule via orienting adaptor and linker (FIG. 92).

Compound: CC(C)[C@H]1C(=O)N[C@H](CO)CCc2c[nH]c3cccc(c23)N1C
Kd [1]: 11 nM
Kd ([2]; read-out: Kd): 8.2 nM
Kd ([3]; read-out: Kd): 19.4 nM
Kd ([4]; read-out: Kd): 6.1 nM
antiproliferative activity against breast carcinoma [5]: inactive against breast carcinoma
Kd ([6]; read-out: Kd): 21.9 nM

Compound: C=C(C)[C@@]12OC3(c4ccccc4)O[C@@H]1[C@@H]1C4OC4(CO)C[C@]4(O)C(=O)C(C)=C[C@H]4[C@@]1(O3)[C@H](C)[C@H]2OC(=O)/C=C/C=C/c1ccccc1 (some centres unmarked)
Kd ([7]; read-out: Kd): 1.27 nM
Kd [1]: 0.27 nM
Kd ([2]; read-out: Kd): 0.55 nM
Kd ([3]; read-out: Kd): 0.21 nM
Kd ([4]; read-out: Kd): 0.16 nM
Kd ([6]; read-out: Kd): 1.2 nM

Compound: C=C(C)[C@@]12OC3(c4ccccc4)O[C@@H]1[C@@H]1C4OC4(CO)C[C@]4(O)C(=O)C(C)=C[C@H]4[C@@]1(O3)[C@H](C)[C@H]2OC(=O)CCCCc1ccccc1 (some centres unmarked)
Kd ([7]; read-out: Kd): 2.48 nM
Kd [1]: 0.82 nM
Kd ([2]; read-out: Kd): 2.17 nM
Kd ([3]; read-out: Kd): 0.8 nM
Kd ([4]; read-out: Kd): 0.51 nM
Kd ([6]; read-out: Kd): 3.13 nM

Compound: CCCCCCCCCCCCCC(=O)OC1C(C)C2(O)C(C=C(CO)CC3(O)C(=O)C(C)=CC32)C2C(C)(C)C12OC(C)=O (centres unmarked)
Kd [7]: 2.63 nM
Kd [2]: 1.31 nM
Kd [3]: 0.26 nM
Kd [4]: 0.16 nM
Kd [6]: 3.11 nM

PKC activation (ADP-Glo) [8]: still activated
Compound: Cc1sc2c(c1C)C(c1ccc(Cl)cc1)=NC(CC(=O)NCCCCCC(=O)NCc1ccc(COc3ccc4c(c3)N(C)[C@@H](C(C)C)C(=O)N[C@H](CO)C4)cc1)c1nnc(C)n1-2 (stereo partly drawn) [(R)-PHICS2.3]

Compound: CC(C)(C)c1nc(-c2cccc(NS(=O)(=O)c3c(F)cccc3F)c2F)c(-c2ccnc(N)n2)s1 [Dabrafenib]
ka [9]: 467000 M⁻¹ s⁻¹
kd [9]: 0.000288 s⁻¹

effect of addition of AMP on BRD4 phosphorylation signal [10]: enhances the phosphorylation signal
Compound: Cc1sc2c(c1C)C(c1ccc(Cl)cc1)=N[C@@H](CC(=O)NCc1cn(CCCCCC(=O)NCCOc3ccc(-c4cc5c(C(=O)O)c[nH]c5cc4Cl)cc3)nn1)c1nnc(C)n1-2 [MS231]

Compound: Cc1ccc(C(=O)Nc2ccc(CN3CCN(C)CC3)c(C(F)(F)F)c2)cc1C#Cc1cnc2cccnn12 [Ponatinib]
ka [11]: 84900 M⁻¹ s⁻¹
kd [11]: 8.93e-05 s⁻¹
log(ka) [11]: 4.93
log(kd) [11]: −4.05
ka [12]: 29800 M⁻¹ s⁻¹
kd [12]: 0.00014 s⁻¹
log(ka) [12]: 4.47
log(kd) [12]: −3.85
ka [13]: 17900 M⁻¹ s⁻¹
kd [13]: 0.000119 s⁻¹
log(ka) [13]: 4.25
log(kd) [13]: −3.93
ka [14]: 21500 M⁻¹ s⁻¹
kd [14]: 0.0168 s⁻¹
ka [15]: 118000 M⁻¹ s⁻¹
kd [15]: 4.29e-05 s⁻¹
log(ka) [15]: 5.07
log(kd) [15]: −4.37
ka [16]: 110000 M⁻¹ s⁻¹
kd [16]: 5.4e-05 s⁻¹
log(ka) [16]: 5.04
log(kd) [16]: −4.27
ka [17]: 40200 M⁻¹ s⁻¹
kd [17]: 0.00268 s⁻¹
log(ka) [17]: 4.60
log(kd) [17]: −2.57

Compound: Cc1sc2c(c1C)C(c1ccc(Cl)cc1)=NC(CC(=O)NCCOCCOCCOCCOCCC(=O)NC1=NN(c3ccc(Cl)c(Cl)c3)CC1)c1nnc(C)n1-2 (centres unmarked) [VS801]
tyrosine phosphorylation enzymatic activity [18]: high tyrosine phosphorylation enzymatic activity

effect of addition of AMP on BRD4 phosphorylation signal [10]: enhances the phosphorylation signal
Compound: Cc1sc2c(c1C)C(c1ccc(Cl)cc1)=N[C@@H](CC(=O)NCCOCCOCCOCCOCCC(=O)NCCOc1ccc(-c3cc4c(C(=O)O)c[nH]c4cc3Cl)cc1)c1nnc(C)n1-2 [VS806]

tyrosine phosphorylation enzymatic activity [18]: inactive
Compound: Cc1sc2c(c1C)C(c1ccc(Cl)cc1)=NC(CC(=O)NCCOCCOCCOCCOCCC(=O)NC1=NN(c3ccc(Cl)c(Cl)c3)CC1)c1nnc(C)n1-2 (centres unmarked) [VS850]
